Among the data in US12344618B2, “Heterotricyclic derivative compound and use of same” (HANMI PHARMACEUTICAL CO., LTD., priority 2019, dated 2025) are GI50 and IC50 values, retold here.

A value given as a limit tells only on which side of the number the result lay.

Chain of EZH2 (Q15910 whole entry): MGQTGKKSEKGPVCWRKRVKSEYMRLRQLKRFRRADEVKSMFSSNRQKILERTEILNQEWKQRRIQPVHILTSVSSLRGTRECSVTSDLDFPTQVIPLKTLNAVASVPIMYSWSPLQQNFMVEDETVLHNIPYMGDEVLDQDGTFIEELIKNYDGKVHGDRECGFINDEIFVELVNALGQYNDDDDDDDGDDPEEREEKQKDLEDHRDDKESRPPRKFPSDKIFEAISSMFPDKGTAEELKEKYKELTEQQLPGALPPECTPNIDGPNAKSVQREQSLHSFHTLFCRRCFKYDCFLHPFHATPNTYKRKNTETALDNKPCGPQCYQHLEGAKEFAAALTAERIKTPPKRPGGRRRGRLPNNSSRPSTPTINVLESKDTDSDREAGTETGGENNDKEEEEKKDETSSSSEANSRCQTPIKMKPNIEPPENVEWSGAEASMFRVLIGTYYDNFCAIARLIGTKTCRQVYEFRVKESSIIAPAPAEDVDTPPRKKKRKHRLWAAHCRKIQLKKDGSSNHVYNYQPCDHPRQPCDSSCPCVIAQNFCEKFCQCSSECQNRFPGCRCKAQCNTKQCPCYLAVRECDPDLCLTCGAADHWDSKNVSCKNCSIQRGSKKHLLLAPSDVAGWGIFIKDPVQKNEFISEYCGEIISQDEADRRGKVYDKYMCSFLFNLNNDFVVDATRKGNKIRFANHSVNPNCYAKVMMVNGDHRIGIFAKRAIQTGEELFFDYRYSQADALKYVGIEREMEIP
Chain of EZH2 (O75530 whole entry partner): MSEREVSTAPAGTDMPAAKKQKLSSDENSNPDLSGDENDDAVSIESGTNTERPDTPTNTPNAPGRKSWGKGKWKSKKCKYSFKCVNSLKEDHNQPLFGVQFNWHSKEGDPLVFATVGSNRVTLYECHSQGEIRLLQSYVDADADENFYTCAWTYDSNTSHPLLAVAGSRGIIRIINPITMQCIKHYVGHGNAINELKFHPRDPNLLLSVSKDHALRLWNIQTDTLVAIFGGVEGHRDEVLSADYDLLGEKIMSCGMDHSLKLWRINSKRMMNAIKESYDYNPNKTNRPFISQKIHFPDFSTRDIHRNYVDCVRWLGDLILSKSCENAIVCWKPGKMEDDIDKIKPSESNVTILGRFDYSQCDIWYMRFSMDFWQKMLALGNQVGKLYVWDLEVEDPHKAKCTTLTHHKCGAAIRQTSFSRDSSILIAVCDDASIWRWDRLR
Chain of EZH2 (Q15022 whole entry partner): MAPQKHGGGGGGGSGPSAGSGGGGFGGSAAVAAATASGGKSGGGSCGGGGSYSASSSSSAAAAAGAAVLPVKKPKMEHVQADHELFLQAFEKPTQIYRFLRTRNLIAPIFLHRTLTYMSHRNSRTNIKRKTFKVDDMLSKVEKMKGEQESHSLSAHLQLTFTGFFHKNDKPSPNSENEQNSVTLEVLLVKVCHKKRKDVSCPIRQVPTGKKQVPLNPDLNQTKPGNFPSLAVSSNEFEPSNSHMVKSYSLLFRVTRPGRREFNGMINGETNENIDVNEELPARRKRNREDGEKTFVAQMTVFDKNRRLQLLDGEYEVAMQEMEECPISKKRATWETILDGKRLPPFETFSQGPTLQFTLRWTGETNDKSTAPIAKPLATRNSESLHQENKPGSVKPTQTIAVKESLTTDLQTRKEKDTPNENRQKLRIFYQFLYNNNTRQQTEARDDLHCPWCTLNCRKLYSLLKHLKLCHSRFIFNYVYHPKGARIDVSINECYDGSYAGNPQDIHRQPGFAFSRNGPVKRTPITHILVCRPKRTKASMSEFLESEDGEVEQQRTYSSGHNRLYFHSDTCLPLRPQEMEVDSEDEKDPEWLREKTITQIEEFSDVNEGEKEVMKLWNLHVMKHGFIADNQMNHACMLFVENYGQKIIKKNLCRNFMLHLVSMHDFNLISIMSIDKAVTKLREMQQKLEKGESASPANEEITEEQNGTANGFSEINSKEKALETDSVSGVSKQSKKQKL
Chain of EZH2 (Q09028 whole entry partner): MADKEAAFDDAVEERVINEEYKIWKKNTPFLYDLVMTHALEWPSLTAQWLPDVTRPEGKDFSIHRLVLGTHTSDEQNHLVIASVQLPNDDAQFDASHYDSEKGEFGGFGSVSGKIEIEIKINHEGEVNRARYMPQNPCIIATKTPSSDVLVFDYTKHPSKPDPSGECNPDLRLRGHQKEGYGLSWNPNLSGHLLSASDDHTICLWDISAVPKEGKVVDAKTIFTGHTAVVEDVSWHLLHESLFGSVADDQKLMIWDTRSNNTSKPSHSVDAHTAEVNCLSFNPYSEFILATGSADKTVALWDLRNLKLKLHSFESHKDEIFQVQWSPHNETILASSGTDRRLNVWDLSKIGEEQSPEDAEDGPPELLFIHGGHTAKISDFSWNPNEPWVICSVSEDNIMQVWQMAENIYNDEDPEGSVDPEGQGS
Chain of EZH2 (Q6ZN18 whole entry partner): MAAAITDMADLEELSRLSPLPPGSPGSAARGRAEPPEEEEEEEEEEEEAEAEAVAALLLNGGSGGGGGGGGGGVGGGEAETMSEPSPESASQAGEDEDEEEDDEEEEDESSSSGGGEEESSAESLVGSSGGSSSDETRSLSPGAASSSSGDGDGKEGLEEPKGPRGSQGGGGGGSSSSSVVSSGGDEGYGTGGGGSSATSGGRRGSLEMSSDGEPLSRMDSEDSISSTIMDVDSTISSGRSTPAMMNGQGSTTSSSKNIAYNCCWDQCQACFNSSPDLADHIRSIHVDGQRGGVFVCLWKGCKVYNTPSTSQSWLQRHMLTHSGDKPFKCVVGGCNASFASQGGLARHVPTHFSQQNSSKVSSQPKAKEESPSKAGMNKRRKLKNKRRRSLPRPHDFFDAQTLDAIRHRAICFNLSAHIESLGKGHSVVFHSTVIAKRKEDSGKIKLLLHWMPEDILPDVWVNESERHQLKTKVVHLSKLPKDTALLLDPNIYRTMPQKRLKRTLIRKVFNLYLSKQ

One assay concerns KARPAS-422 (EZH2 Y641N mutation). As to the kind of experiment: Cell growth inhibition test, KARPAS-422. The assay is classed as cell-based. The conditions noted are these: Homo sapiens, KARPAS-422, 168 h, KARPAS-422, culture time 7 days; read-out: Cell growth inhibitory activity (GI50, nM) KARPAS-422 (EZH2 Y641N mutation). As to the method:
Each type of the cultured cells was seeded in 6-well plates or 48-96 well plates, and subculture or medium replacement was performed every 3 to 4 days. Next, the cells were subcultured for a total of 7 to 14 days, and then seeded in 96-well plates. 3 to 5 days before the measurement of the effect, the cells were seeded in 96-well plates, and then the absorbance (Tz) on the day of seeding was measured. The absorbance after the reaction was measured by the plate reader device Synergy NeoAlpha (Biotek) using Cell-Titer-Glo Cell Viability Assay (Promega, G7573) according to the attached manual. Based on the absorbance (Tz) measured on the seeding day and the absorbance of each of the DMSO-treated group (C) and the sample-added group (Ti) measured on the day of effect determination, the percentage of cell proliferation inhibition was calculated according to the following Equation 1. [(Ti−Tz)/(C−Tz)]×100 for concentrations for which Ti≥Tz […] for concentrations for which Ti<Tz. [Equation 1]
Usually GI50 stands for the concentration at which growth is held to half of that of the control. As for `Cc1cc(C)c(CN2CCc3c(Cl)c4c(c(C)c3C2=O)OC(C)([C@@H]2CCC[C@H](N(C)C)C2)O4)c(=O)[nH]1` (relative stereo) [Compound 36, 9-chloro-6-((4,6-dimethyl-2-oxo-1,2-dihydropyridin-3-yl)methyl)-2-(cis-3-(dimethylamino)cyclohexyl)-2,4-dimethyl-7,8-dihydro-[1,3]dioxolo[4,5-g]isoquinolin-5(6H)-one], the concentration for 50% growth inhibition (GI50) is 87 nM. For the compound `Cc1cc(C)c(CN2CCc3c(Cl)c4c(c(C)c3C2=O)OC(C)([C@@H]2CC[C@H](N(C)C)C2)O4)c(=O)[nH]1` (relative stereo) [Compound 37, 9-chloro-6-((4,6-dimethyl-2-oxo-1,2-dihydropyridin-3-yl)methyl)-2-(cis-3-(dimethylamino)cyclopentyl)-2,4-dimethyl-7,8-dihydro-[1,3]dioxolo[4,5-g]isoquinolin-5(6H)-one], the GI50 was found to be 22 nM. As to `Cc1cc(C)c(CN2CCc3c(cc4c(c3C)OC(C)([C@H]3CC[C@H](N(C)C)CC3)O4)C2=O)c(=O)[nH]1` (stereo partly drawn) [Compound 3, 6-((4,6-dimethyl-2-oxo-1,2-dihydropyridin-3-yl)methyl)-2-(trans-4-(dimethylamino)cyclohexyl)-2,9-dimethyl-7,8-dihydro-[1,3]dioxolo[4,5-g]isoquinolin-5(6H)-one], the GI50 came to 39 nM. On to `Cc1cc(C)c(CN2CCc3c(Cl)c4c(c(C)c3C2=O)OC(C)([C@H]2CC[C@H](N)CC2)O4)c(=O)[nH]1` (stereo partly drawn) [Compound 8, 2-(trans-4-aminocyclohexyl)-9-chloro-6-((4,6-dimethyl-2-oxo-1,2-dihydropyridin-3-yl)methyl)-2,4-dimethyl-7,8-dihydro-[1,3]dioxolo[4,5-g]isoquinolin-5(6H)-one], for which the GI50 is 13 nM. On to `Cc1cc(C)c(CN2CCc3c(Cl)c4c(c(C)c3C2=O)OC(C)(c2ccc3c(ccn3C)c2)O4)c(=O)[nH]1` (stereo not shown) [Compound 32, 9-chloro-6-((4,6-dimethyl-2-oxo-1,2-dihydropyridin-3-yl)methyl)-2,4-dimethyl-2-(1-methyl-1H-indol-5-yl)-7,8-dihydro-[1,3]dioxolo[4,5-g]isoquinolin-5(6H)-one], for which the GI50 is over 1000 nM.

As for `CO[C@H]1CC[C@H](C2(C)Oc3c(C)c4c(c(Cl)c3O2)CCN(Cc2c(C)cc(C)[nH]c2=O)C4=O)CC1` (stereo partly drawn) [Compound 33, 9-chloro-6-((4,6-dimethyl-2-oxo-1,2-dihydropyridin-3-yl)methyl)-2-(trans-4-methoxycyclohexyl)-2,4-dimethyl-7,8-dihydro-[1,3]dioxolo[4,5-g]isoquinolin-5(6H)-one], the GI50 was 187 nM.

In the case of `Cc1cc(C)c(CN2CCc3c(Cl)c4c(c(C)c3C2=O)OC(C)([C@H]2C[C@H](N(C)C)C2)O4)c(=O)[nH]1` (stereo partly drawn) [Compound 35, 9-chloro-6-((4,6-dimethyl-2-oxo-1,2-dihydropyridin-3-yl)methyl)-2-(trans-3-(dimethylamino)cyclobutyl)-2,4-dimethyl-7,8-dihydro-[1,3]dioxolo[4,5-g]isoquinolin-5(6H)-one], the GI50 came out at 57 nM. In the case of `Cc1cc(C)c(CN2CCc3c(c(C)c4c(c3-c3ccccc3)OC(C)([C@H]3CC[C@H](N(C)C)CC3)O4)C2=O)c(=O)[nH]1` (stereo partly drawn) [Compound 56, 6-((4,6-dimethyl-2-oxo-1,2-dihydropyridin-3-yl)methyl)-2-(trans-4-(dimethylamino)cyclohexyl)-2,4-dimethyl-9-phenyl-7,8-dihydro-[1,3]dioxolo[4,5-g]isoquinolin-5(6H)-one], the GI50 worked out at 11 nM. Take `Cc1cc(C)c(CN2CCc3c(c(C)c4c(c3C3=CCCC3)OC(C)([C@H]3CC[C@H](N(C)C)CC3)O4)C2=O)c(=O)[nH]1` (stereo partly drawn) [Compound 57, 9-(cyclopent-1-en-1-yl)-6-((4,6-dimethyl-2-oxo-1,2-dihydropyridin-3-yl)methyl)-2-(trans-4-(dimethylamino)cyclohexyl)-2,4-dimethyl-7,8-dihydro-[1,3]dioxolo[4,5-g]isoquinolin-5(6H)-one]: the GI50 came out at 13 nM. The same measure, in the same setting: in the case of `Cc1cc(C)c(CN2CCc3c(c(C)c4c(c3C3CCCC3)OC(C)([C@H]3CC[C@H](N(C)C)CC3)O4)C2=O)c(=O)[nH]1` (stereo partly drawn) [Compound 58, 9-cyclopentyl-6-((4,6-dimethyl-2-oxo-1,2-dihydropyridin-3-yl)methyl)-2-(trans-4-(dimethylamino)cyclohexyl)-2,4-dimethyl-7,8-dihydro-[1,3]dioxolo[4,5-g]isoquinolin-5(6H)-one] it was 13 nM; in that of `Cc1cc(C)c(CN2CCc3c(c(C)c4c(c3C3=CCCCC3)OC(C)([C@H]3CC[C@H](N(C)C)CC3)O4)C2=O)c(=O)[nH]1` (stereo partly drawn) [Compound 59, 9-(cyclohex-1-en-1-yl)-6-((4,6-dimethyl-2-oxo-1,2-dihydropyridin-3-yl)methyl)-2-(trans-4-(dimethylamino)cyclohexyl)-2,4-dimethyl-7,8-dihydro-[1,3]dioxolo[4,5-g]isoquinolin-5(6H)-one], 28 nM; in that of `Cc1cc(C)c(CN2CCc3c(c(C)c4c(c3C3CCCCC3)OC(C)([C@H]3CC[C@H](N(C)C)CC3)O4)C2=O)c(=O)[nH]1` (stereo partly drawn) [Compound 60, 9-cyclohexyl-6-((4,6-dimethyl-2-oxo-1,2-dihydropyridin-3-yl)methyl)-2-(trans-4-(dimethylamino)cyclohexyl)-2,4-dimethyl-7,8-dihydro-[1,3]dioxolo[4,5-g]isoquinolin-5(6H)-one], 28 nM. For `C=C(C)c1c2c(c(C)c3c1OC(C)([C@H]1CC[C@H](N(C)C)CC1)O3)C(=O)N(Cc1c(C)cc(C)[nH]c1=O)CC2` (stereo partly drawn) [Compound 61, 6-((4,6-dimethyl-2-oxo-1,2-dihydropyridin-3-yl)methyl)-2-(trans-4-(dimethylamino)cyclohexyl)-2,4-dimethyl-9-(prop-1-en-2-yl)-7,8-dihydro-[1,3]dioxolo[4,5-g]isoquinolin-5(6H)-one], the GI50 came to 4.8 nM.

With `Cc1cc(C)c(CN2CCc3c(c(C)c4c(c3C(C)C)OC(C)([C@H]3CC[C@H](N(C)C)CC3)O4)C2=O)c(=O)[nH]1` (stereo partly drawn) [Compound 62, 6-((4,6-dimethyl-2-oxo-1,2-dihydropyridin-3-yl)methyl)-2-(trans-4-(dimethylamino)cyclohexyl)-9-isopropyl-2,4-dimethyl-7,8-dihydro-[1,3]dioxolo[4,5-g]isoquinolin-5(6H)-one], the 50% growth inhibitory concentration (GI50) amounted to 6.2 nM. Same read-out and setting: in the case of `CCc1c2c(c(C)c3c1OC(C)([C@H]1CC[C@H](N(C)C)CC1)O3)C(=O)N(Cc1c(C)cc(C)[nH]c1=O)CC2` (stereo partly drawn) [Compound 63, 6-((4,6-dimethyl-2-oxo-1,2-dihydropyridin-3-yl)methyl)-2-(trans-4-(dimethylamino)cyclohexyl)-9-ethyl-2,4-dimethyl-7,8-dihydro-[1,3]dioxolo[4,5-g]isoquinolin-5(6H)-one] it was 4.4 nM; in that of `Cc1cc(C)c(CN2CCc3c(c(C)c4c(c3-c3ccco3)OC(C)([C@H]3CC[C@H](N(C)C)CC3)O4)C2=O)c(=O)[nH]1` (stereo partly drawn) [Compound 64, 6-((4,6-dimethyl-2-oxo-1,2-dihydropyridin-3-yl)methyl)-2-(trans-4-(dimethylamino)cyclohexyl)-9-(furan-2-yl)-2,4-dimethyl-7,8-dihydro-[1,3]dioxolo[4,5-g]isoquinolin-5(6H)-one], 5 nM; in that of `Cc1cc(C)c(CN2CCc3c(c(C)c4c(c3C3=CCOCC3)OC(C)([C@H]3CC[C@H](N(C)C)CC3)O4)C2=O)c(=O)[nH]1` (stereo partly shown) [Compound 65], 8.8 nM. On to `Cc1cc(C)c(CN2CCc3c(c(C)c4c(c3-c3cccnc3)OC(C)([C@H]3CC[C@H](N(C)C)CC3)O4)C2=O)c(=O)[nH]1` (stereo partly drawn) [Compound 66, 6-((4,6-dimethyl-2-oxo-1,2-dihydropyridin-3-yl)methyl)-2-(trans-4-(dimethylamino)cyclohexyl)-2,4-dimethyl-9-(pyridin-3-yl)-7,8-dihydro-[1,3]dioxolo[4,5-g]isoquinolin-5(6H)-one], for which the GI50 worked out at 6.4 nM. The same measure, in the same setting: in the case of `Cc1cc(C)c(CN2CCc3c(c(C)c4c(c3-c3cncs3)OC(C)([C@H]3CC[C@H](N(C)C)CC3)O4)C2=O)c(=O)[nH]1` (stereo partly drawn) [Compound 67, 6-((4,6-dimethyl-2-oxo-1,2-dihydropyridin-3-yl)methyl)-2-(trans-4-(dimethylamino)cyclohexyl)-2,4-dimethyl-9-(thiazol-5-yl)-7,8-dihydro-[1,3]dioxolo[4,5-g]isoquinolin-5(6H)-one] it was 4.3 nM; in that of `Cc1cc(C)c(CN2CCc3c(c(C)c4c(c3-c3cnn(C)c3)OC(C)([C@H]3CC[C@H](N(C)C)CC3)O4)C2=O)c(=O)[nH]1` (stereo partly drawn) [Compound 68, 6-((4,6-dimethyl-2-oxo-1,2-dihydropyridin-3-yl)methyl)-2-(trans-4-(dimethylamino)cyclohexyl)-2,4-dimethyl-9-(1-methyl-1H-pyrazol-4-yl)-7,8-dihydro-[1,3]dioxolo[4,5-g]isoquinolin-5 (6H)-one], 5.1 nM.

Still in this assay, the particulars now being: KARPAS-422, culture time 7 days; read-out: Cell growth inhibitory activity (GI50, nM) KARPAS-422 (EZH2 Y641N mutation).
With `Cc1cc(C)c(CN2CCc3c(C)c4c(c(Cl)c3C2=O)OC(C)([C@H]2CC[C@H](N(C)C)CC2)O4)c(=O)[nH]1` (single isomer, unassigned) [Compound 6, 4-chloro-6-((4,6-dimethyl-2-oxo-1,2-dihydropyridin-3-yl)methyl)-2-(trans-4-(dimethylamino)cyclohexyl)-2,9-dimethyl-7,8-dihydro-[1,3]dioxolo[4,5-g]isoquinolin-5(6H)-one], the GI50 came to 310 nM.

A further assay concerns the target EZH2 (Homo sapiens, UniProt Q15910). In words: Inhibitory activity against EZH2 methyltransferase (radiometric scintillation proximity assay).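 Further: Read-out is substrate peptide methylation, captured on streptavidin-coated SPA beads and counted by scintillation, with the reaction run in Tris-HCl buffer at pH 8.0 containing 1% DMSO.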 The conditions noted are these: Enzyme inhibitory activity (IC50, nM) EZH2, 2.3 nmol/L enzyme, 90 minutes, room temperature.
Experimental: The inhibitory activities of the synthetic compounds against EZH1 or EZH2 methyltransferase were measured. The experiment was conducted by Reaction Biology Corp., and the activity of EZH1 or EZH2 was measured using a radiometric scintillation proximity assay. […] The reaction buffer consisted of 50 mmol/L Tris-HCl (pH 8.0), 50 mmol/L NaCl, 1 mmol/L EDTA, 1 mmoL/L DTT, 1 mmol/L PMSF, and 1% DMSO. Trichloroacetic acid was added to terminate the reaction, and PVT streptavidin-coated SPA beads were added to each reaction solution, followed by further reaction at room temperature for 1 hour again. The methylation value of the substrate peptide was measured using the TopCount NXT plate reader.
As usually defined, the IC50 is the concentration needed to halve the response being measured. A low value points to higher potency. Consider `Cc1cc(C)c(CN2CCc3c(Cl)c4c(c(C)c3C2=O)OC(C)([C@H]2CC[C@H](N)CC2)O4)c(=O)[nH]1` (stereo partly drawn) [Compound 8, 2-(trans-4-aminocyclohexyl)-9-chloro-6-((4,6-dimethyl-2-oxo-1,2-dihydropyridin-3-yl)methyl)-2,4-dimethyl-7,8-dihydro-[1,3]dioxolo[4,5-g]isoquinolin-5(6H)-one], for which the IC50 turned out to be 3.2 nM.
